Test results reported in US6403034B1, “Method of reducing the concentration of recalcitrant organic contamination in a soil matrix” (priority 1995, dated 2002).
Read-outs that look alike come from different tables or passages of the source. Blank lines part the entries; values can stand above or below the compound they belong to.

What was measured:
[1] = Relative recalcitrancy classification of organic contaminants (FIG. 1); format: physicochemical
[2] = Ozonation of contaminated soil slurry in 5-L reaction flask (Examples 1, 2 and 7); format: physicochemical
[3] = format: physicochemical; conditions: for soil concentration reduced by: continuous ozonation for 56 days
[4] = Laboratory ozonation of contaminants, incubation versus oxidation phase (FIGS. 2, 5, 6, 8-12); format: physicochemical; conditions: for incubation time: lab conditions
[5] = aqueous solubility; cited from earlier work
[6] = by solubility, volatility and non-reactivity standards

Structure (SMILES): ClC1=C(Cl)C2(Cl)C3C4C=CC(C4)C3C1(Cl)C2(Cl)Cl (stereo not shown) [Aldrin]
relative recalcitrancy [1]: strongly recalcitrant

Structure (SMILES): c1ccccc1 [Benzene]
relative recalcitrancy [1, 6]: non-recalcitrant

Structure (SMILES): ClC1=C(Cl)C2(Cl)C3C(Cl)C(Cl)CC3C1(Cl)C2(Cl)Cl (stereo not shown) [Chlordane]
relative recalcitrancy [1]: strongly recalcitrant

Structure (SMILES): Clc1ccc(C(c2ccc(Cl)cc2)C(Cl)(Cl)Cl)cc1 [DDT]
relative recalcitrancy [1]: strongly recalcitrant

Structure (SMILES): CCCCCCCCOC(=O)c1ccccc1C(=O)OCCCCCCCC [Di-n-octyl phthalate]
concentration reduced by ([2]; Example 2, in 48 hours of ozonation, start 37 mg/Kg): 97%

Structure (SMILES): O=S1OCC2C(CO1)C1(Cl)C(Cl)=C(Cl)C2(Cl)C1(Cl)Cl (stereo not shown) [Endosulfan II]
incubation phase ([3]; 31 mg/kg, FIG. 17): about 16 days | soil concentration reduced by [3]: 100%

Structure (SMILES): CCOP(=S)(OCC)Oc1ccc([N+](=O)[O-])cc1 [Ethyl Parathion]
soil concentration reduced by [3]: 100%

Structure (SMILES): Clc1c(Cl)c(Cl)c(Cl)c(Cl)c1Cl [HCB]
incubation phase (ozonation time) [4]: ~8 h

Structure (SMILES): Oc1c(Cl)c(Cl)c(Cl)c(Cl)c1Cl [PCP, Pentachlorophenol]
incubation time ([4]; FIG. 10): about 45 minutes | concentration reduced by ([2]; Example 1, in 31 hours, start 28 mg/Kg): 97.5%

Structure (SMILES): CCOP(=S)(OCC)Oc1ccc([S+](C)[O-])cc1 (stereo not shown) [Phensulfothion]
soil concentration reduced by [3]: 100%

Structure (SMILES): c1cc2c3c(cccc3c1)CC2 [acenapthene]
relative recalcitrancy [1]: recalcitrant

relative recalcitrancy [1, 6]: recalcitrant
Structure (SMILES): c1ccc2cc3ccccc3cc2c1 [anthracene]

Structure (SMILES): c1ccc2c(c1)cc1ccc3cccc4ccc2c1c34 [benzo(a)pyrene]
incubation time ([4]; FIGS. 6, 8, 9): more than 5 hours

Structure (SMILES): c1ccc(-c2ccccc2)cc1 [biphenyl]
relative recalcitrancy [1]: marginally recalcitrant | solubility [5]: 5,200 μg/L

Structure (SMILES): CCCCC(CC)COC(=O)c1ccccc1C(=O)OCC(CC)CCCC (stereo not shown) [bis(2-ethylhexyl)phthalate]
incubation time ([4]; FIGS. 6, 8, 9): less than 30 hours | concentration reduced by ([2]; Example 2, in 72 hours of ozonation, start 597 mg/Kg): 98.2% | relative recalcitrancy [1, 6]: recalcitrant

Structure (SMILES): c1ccc2c(c1)ccc1c3ccccc3ccc21 [chrysene]
relative recalcitrancy [1]: recalcitrant

Structure (SMILES): CCc1ccccc1 [ethylbenzene]
relative recalcitrancy [1]: non-recalcitrant

relative recalcitrancy [1, 6]: non-recalcitrant
Structure (SMILES): CCCCCCC [heptane]

Structure (SMILES): CCOC(=O)CC(SP(=S)(OC)OC)C(=O)OCC (stereo not shown) [malathion]
relative recalcitrancy [1]: recalcitrant

Structure (SMILES): c1ccc2ccccc2c1 [napthalene]
relative recalcitrancy [1]: recalcitrant
